Among the data in US8765944B2, “Compounds for the treatment of hepatitis C” (priority 2010, dated 2014) are EC50 values, retold here.

The structures appear in SMILES notation.

The assay relates to HCV pseudoparticles. As to the kind of experiment: HCV pseudoparticle infection assay (luciferase reporter, Huh7 cells). Format: cell-based, HCV (genotype 1b E1 and E2 envelope). To be noted: Hepatitis C virus, genotype 1b, Huh-7, 48 h, HCV pseudoparticles (genotype 1b), luciferase activity 2 days after infection.

As for `CC(C)(CNC(=O)c1ccc(Nc2nc(NC3(c4ccc(Cl)cc4)CC3)nc(OCC(F)(F)F)n2)cc1)C(=O)NS(=O)(=O)C1CCC1` [Example 2089], the EC50 (class) lay within 0.0005 to 0.1 µM.

As for `CCS(=O)(=O)NC(=O)CCCCNC(=O)c1ccc(Nc2nc(NC3(c4ccc(Cl)cc4)CC3)nc(OCC(F)(F)F)n2)cc1` [Example 2014], the EC50 (class) is 0.0005 to 0.1 µM.

As to `O=C(CC(F)(F)F)NCCS(=O)(=O)NC(=O)c1ccc(Nc2nc(NC3(c4ccc(Cl)cc4)CC3)nc(OCC(F)(F)F)n2)cc1` [Example 1040], the EC50 (class) fell in the range of 0.0005 to 0.1 µM.

`CS(=O)(=O)NC(=O)CCNC(=O)CCCNC(=O)c1ccc(Nc2nc(NC3(c4ccc(Cl)cc4)CC3)nc(OCC(F)(F)F)n2)cc1` [Example 2059]: the concentration giving a half-maximal response (EC50) (class) is 0.0005 to 0.1 µM.

On to `CCC(=O)NS(=O)(=O)c1ccc(Nc2nc(NC3(c4ccc(Cl)cc4)CC3)nc(OCC(F)(F)F)n2)cc1` [Example 8004], for which the 50% effective concentration (EC50) amounted to 2.98 µM. This compound also registered an EC50 (class) of 1 to 5 µM.

In turn, `CCS(=O)(=O)N1CCN(c2nc(Nc3ccc(C(=O)NS(=O)(=O)C4(CN(C)C)CC4)cc3)nc(OCC(F)(F)F)n2)CC1` [Example 8023] gave an EC50 (class) of 1 to 5 µM.

Compound `CNC(=O)OCC1(S(=O)(=O)NC(=O)c2ccc(Nc3nc(NC4(c5ccc(Cl)cc5)CC4)nc(OCC(F)(F)F)n3)cc2)CC1` [Example 1026] showed an EC50 of 0.103 µM. Further, the EC50 (class) fell in the range of 0.1 to 1 µM.

The compound `CC(C)S(=O)(=O)NC(=O)C(C)(C)CNC(=O)c1ccc(Nc2nc(NC3(c4ccc(Cl)cc4)CC3)nc(OCC(F)(F)F)n2)cc1` [Example 2088] had an EC50 (class) of 0.0005 to 0.1 µM.

Regarding `CC(C)(CNC(=O)c1ccc(Nc2nc(NC3(c4ccc(Cl)cc4)CC3)nc(OCC(F)(F)F)n2)cc1)C(=O)N[C@]1(C(=O)NS(=O)(=O)C2CC2)C[C@H]1C1CC1` [Example 2081], the EC50 (class) is 0.0005 to 0.1 µM.

`O=C(CCCNC(=O)c1ccc(Nc2nc(NC3(c4ccc(Cl)cc4)CC3)nc(OCC(F)(F)F)n2)cc1)N[C@]1(C(=O)NS(=O)(=O)C2CCC2)C[C@H]1C1CC1` [Example 2042] returned a concentration for a half-maximal effect (EC50) (class) of 0.0005 to 0.1 µM.

`O=C(CCN1CCS(=O)(=O)CC1)NCC1(C(=O)NS(=O)(=O)c2ccc(Nc3nc(NC4(c5ccc(Cl)cc5)CC4)nc(OCC(F)(F)F)n3)cc2)CC1` [Example 3009]: under “class”, the EC50 was 1 to 5 µM.

Compound `O=C(CCCCNC(=O)c1ccc(Nc2nc(NC3(c4ccc(Cl)cc4)CC3)nc(OCC(F)(F)F)n2)cc1)NS(=O)(=O)C1CCC1` [Example 2028] returned an EC50 (class) of 0.0005 to 0.1 µM.

On to `CS(=O)(=O)NC(=O)[C@@]1(NC(=O)CCCNC(=O)c2ccc(Nc3nc(NC4(c5ccc(Cl)cc5)CC4)nc(OCC(F)(F)F)n3)cc2)C[C@H]1C1CC1` [Example 2039, 4-(4-(1-(4-chlorophenyl)cyclopropylamino)-6-(2,2,2-trifluoroethoxy)-1,3,5-triazin-2-ylamino)-N-(4-((1S,2R)-2-(methylsulfonylcarbamoyl)bi(cyclopropan)-2-ylamino)-4-oxobutyl)benzamide], for which the concentration giving a half-maximal response (EC50) (class) lay in the range of 0.0005 to 0.1 µM.

As for `C[C@H](NC(=O)CCCNC(=O)c1ccc(Nc2nc(NC3(c4ccc(Cl)cc4)CC3)nc(OCC(F)(F)F)n2)cc1)C(=O)NS(=O)(=O)N(C)C` [Example 2056], the EC50 (class) lay in the range of 0.0005 to 0.1 µM.

As to `Cc1ccccc1S(=O)(=O)N1CCN(c2nc(Nc3ccc(C(=O)NS(=O)(=O)C4(CN(C)C)CC4)cc3)nc(OCC(F)(F)F)n2)CC1` [Example 8034], a half-maximal response (EC50) required 23 µM. This compound also returned an EC50 (class) of 1 to 5 µM.

`O=C(Nc1cccnc1)OCC1(S(=O)(=O)NC(=O)c2ccc(Nc3nc(NC4(c5ccc(Cl)cc5)CC4)nc(OCC(F)(F)F)n3)cc2)CC1` [Example 1028] gave an EC50 of 0.06 µM. In addition, under “class”, the EC50 fell in the range of 0.0005 to 0.1 µM.

Take `CN(C)S(=O)(=O)NC(=O)[C@@]1(NC(=O)CCCNC(=O)c2ccc(Nc3nc(NC4(c5ccc(Cl)cc5)CC4)nc(OCC(F)(F)F)n3)cc2)C[C@H]1C1CC1(F)F` (stereo partly shown) [Example 2049]: where the note is “class”, the EC50 lay in the range of 0.0005 to 0.1 µM.

Compound `Cc1ccccc1C(=O)N1CCN(c2nc(Nc3ccc(C(=O)NS(=O)(=O)C4(CN(C)C)CC4)cc3)nc(OCC(F)(F)F)n2)CC1` [Example 8040] gave an EC50 (class) of 1 to 5 µM.

`CNC(=O)NCCS(=O)(=O)NC(=O)c1ccc(Nc2nc(NC3(c4ccc(Cl)cc4)CC3)nc(OCC(F)(F)F)n2)cc1` [Example 1047] came in with an EC50 (class) of 0.0005 to 0.1 µM.

`O=C(NS(=O)(=O)C1(CN2CCC2)CC1)c1ccc(Nc2nc(NC3(c4ccc(Cl)cc4)CC3)nc(OCC(F)(F)F)n2)cc1` [Example 1013] came in with an EC50 (class) of 0.0005 to 0.1 µM.

For `CS(=O)(=O)NC(=O)CCNC(=O)c1ccc(Nc2nc(NC3(c4ccc(Cl)cc4)CC3)nc(OCC(F)(F)F)n2)cc1` [Example 2018], the EC50 (class) was 0.0005 to 0.1 µM.

For the setting “class”, `O=C(NS(=O)(=O)C1(CN2CCOCC2)CC1)c1ccc(Nc2nc(NC3(c4ccc(Cl)cc4)CC3)nc(OCC(F)(F)F)n2)cc1` [Example 1015] registered an EC50 of 0.0005 to 0.1 µM.

Take `O=C(NS(=O)(=O)CCN1CCOCC1)c1ccc(Nc2nc(NC3(c4ccc(Cl)cc4)CC3)nc(OCC(F)(F)F)n2)cc1` [Example 1030]: the concentration for a half-maximal effect (EC50) (class) is 0.0005 to 0.1 µM.

As to `O=C(NS(=O)(=O)CCNC(=O)C1CC1)c1ccc(Nc2nc(NC3(c4ccc(Cl)cc4)CC3)nc(OCC(F)(F)F)n2)cc1` [Example 1039], for the setting “class”, the EC50 lay in the range of 0.0005 to 0.1 µM.

With `CC(C)S(=O)(=O)NC(=O)[C@@]1(NC(=O)CCCNC(=O)c2ccc(Nc3nc(NC4(c5ccc(Cl)cc5)CC4)nc(OCC(F)(F)F)n3)cc2)C[C@H]1C1CC1` [Example 2041], the EC50 (class) was 0.0005 to 0.1 µM.

Compound `C=CS(=O)(=O)NC(=O)[C@@]1(NC(=O)CCCNC(=O)c2ccc(Nc3nc(NC4(c5ccc(Cl)cc5)CC4)nc(OCC(F)(F)F)n3)cc2)C[C@H]1C1CC1` [Example 2040] came in with an EC50 (class) of 0.0005 to 0.1 µM.

Turning to `CC(C)S(=O)(=O)NC(=O)CCNC(=O)c1ccc(Nc2nc(NC3(c4ccc(Cl)cc4)CC3)nc(OCC(F)(F)F)n2)cc1` [Example 2020], under “class”, the EC50 lay in the range of 0.0005 to 0.1 µM.

Under “class”, `CC(C)NC(=O)NCCS(=O)(=O)NC(=O)c1ccc(Nc2nc(NC3(c4ccc(Cl)cc4)CC3)nc(OCC(F)(F)F)n2)cc1` [Example 1048] had an EC50 of 0.0005 to 0.1 µM.

Turning to `Cc1cccc(S(=O)(=O)N2CCN(c3nc(Nc4ccc(C(=O)NS(=O)(=O)C5(CN(C)C)CC5)cc4)nc(OCC(F)(F)F)n3)CC2)c1` [Example 8032], the EC50 (class) lay within 1 to 5 µM.

`C[C@@H](NC(=O)CCCNC(=O)c1ccc(Nc2nc(NC3(c4ccc(Cl)cc4)CC3)nc(OCC(F)(F)F)n2)cc1)C(=O)NS(C)(=O)=O` [Example 2051, (R)-4-(4-(1-(4-chlorophenyl)cyclopropylamino)-6-(2,2,2-trifluoroethoxy)-1,3,5-triazin-2-ylamino)-N-(4-(1-(methylsulfonamido)-1-oxopropan-2-ylamino)-4-oxobutyl)benzamide] came in with an EC50 (class) of 0.0005 to 0.1 µM.

As to `CC(C)(CNC(=O)c1ccc(Nc2nc(NC3(c4ccc(Cl)cc4)CC3)nc(OCC(F)(F)F)n2)cc1)C(=O)NC1(C(=O)NS(=O)(=O)C2CC2)CC1` [Example 2095], the half-maximal effective concentration (EC50) (class) was 0.0005 to 0.1 µM.

As to `CN(CC1(S(=O)(=O)NC(=O)c2ccc(Nc3nc(NC4(c5ccc(Cl)cc5)CC4)nc(OCC(F)(F)F)n3)cc2)CC1)c1ccccc1` [Example 1021], the EC50 is 0.094 µM. Moreover, the EC50 (class) fell in the range of 0.0005 to 0.1 µM.

`C=CS(=O)(=O)NC(=O)c1ccc(Nc2nc(NC3(c4ccc(Cl)cc4)CC3)nc(OCC(F)(F)F)n2)cc1` [Example 1004] showed an EC50 of 0.0053 µM. For the setting “class”, this compound displayed an EC50 of 0.0005 to 0.1 µM.

In the case of `O=C(NS(=O)(=O)c1ccc(Nc2nc(NC3(c4ccc(Cl)cc4)CC3)nc(OCC(F)(F)F)n2)cc1)C1(CN2CCCCC2)CC1` [Example 3002], the EC50 amounted to 0.477 µM. The compound also returned an EC50 (class) of 0.1 to 1 µM.

As to `CN(C)CC1(S(=O)(=O)NC(=O)c2ccc(Nc3nc(OCC(F)(F)F)nc(N4CCN(C(=O)c5ccccc5F)CC4)n3)cc2)CC1` [Example 8029], the EC50 (class) lay within 1 to 5 µM.

Regarding `CC(C)C(=O)NS(=O)(=O)CCNC(=O)c1ccc(Nc2nc(NC3(c4ccc(Cl)cc4)CC3)nc(OCC(F)(F)F)n2)cc1` [Example 4001], where the note is “class”, the EC50 is 0.0005 to 0.1 µM.

As for `O=C(NCCS(=O)(=O)NC(=O)c1ccc(Nc2nc(NC3(c4ccc(Cl)cc4)CC3)nc(OCC(F)(F)F)n2)cc1)c1ccccc1` [Example 1037], where the note is “class”, the EC50 lay in the range of 0.0005 to 0.1 µM.

In turn, `CC(C)N(C(=O)C1(CNC(=O)c2ccc(Nc3nc(NC4(c5ccc(Cl)cc5)CC4)nc(OCC(F)(F)F)n3)cc2)CC1)S(N)(=O)=O` [Example 2079] gave a half-maximal effective concentration (EC50) (class) of 0.0005 to 0.1 µM.

Turning to `CCC1(S(=O)(=O)NC(=O)C2(CNC(=O)c3ccc(Nc4nc(NC5(c6ccc(Cl)cc6)CC5)nc(OCC(F)(F)F)n4)cc3)CC2)CC1` [Example 2076], the EC50 (class) was 0.0005 to 0.1 µM.

With `CN(C)CC1(S(=O)(=O)NC(=O)c2ccc(Nc3nc(OCC(F)(F)F)nc(N4CCN(S(=O)(=O)c5cccc(F)c5)CC4)n3)cc2)CC1` [Example 8036], the concentration giving a half-maximal response (EC50) (class) is 1 to 5 µM.

`CC(C)S(=O)(=O)NC(=O)CCCCNC(=O)c1ccc(Nc2nc(NC3(c4ccc(Cl)cc4)CC3)nc(OCC(F)(F)F)n2)cc1` [Example 2013] returned an EC50 (class) of 0.0005 to 0.1 µM.

In the case of `CN(C)S(=O)(=O)NC(=O)CCNC(=O)CCCNC(=O)c1ccc(Nc2nc(NC3(c4ccc(Cl)cc4)CC3)nc(OCC(F)(F)F)n2)cc1` [Example 2060], for the setting “class”, the EC50 fell in the range of 0.0005 to 0.1 µM.

Under “class”, `CC(C)(C)S(=O)(=O)NC(=O)[C@@]1(NC(=O)CCCNC(=O)c2ccc(Nc3nc(NC4(c5ccc(Cl)cc5)CC4)nc(OCC(F)(F)F)n3)cc2)C[C@H]1C1CC1(F)F` (stereo partly shown) [Example 2050] showed an EC50 of 0.0005 to 0.1 µM.

In turn, `CC(=O)NCCS(=O)(=O)NC(=O)c1ccc(Nc2nc(NC3(c4ccc(Cl)cc4)CC3)nc(OCC(F)(F)F)n2)cc1` [Example 1036] registered an EC50 (class) of 0.0005 to 0.1 µM.

Under “class”, `CN(C)S(=O)(=O)NC(=O)CCCCNC(=O)c1ccc(Nc2nc(NC3(c4ccc(Cl)cc4)CC3)nc(OCC(F)(F)F)n2)cc1` [Example 2030] showed an EC50 of 0.0005 to 0.1 µM.

`CC(C)(C)OC(=O)N1CCC[C@H]1C(=O)NS(=O)(=O)CCNC(=O)c1ccc(Nc2nc(NC3(c4ccc(Cl)cc4)CC3)nc(OCC(F)(F)F)n2)cc1` [Example 4004] displayed an EC50 of 0.0026 µM. This compound also yielded an EC50 (class) of 0.0005 to 0.1 µM.

Regarding `O=C(CCCNC(=O)c1ccc(Nc2nc(NC3(c4ccc(Cl)cc4)CC3)nc(OCC(F)(F)F)n2)cc1)N[C@]1(C(=O)NS(=O)(=O)C2CC2)C[C@H]1C(F)F` [Example 2038], the EC50 (class) lay within 0.0005 to 0.1 µM.
